In the test the target is T1, AsPC-1 HiBiT-KRASG12D (Homo sapiens, UniProt P01116, G12D).
T1 construct: insert the HiBiT tag onto the N-terminus of one or more of the endogenous KRAS alleles; endogenous in cells; host or cells: AsPC-1 (ATCC CRL-1682), CRISPR-Cas9 knock-in clone, one tagged allele
In words: HiBiT degradation assay (G12D), AsPC-1 HiBiT-KRASG12D cells. Format: cell-based. The conditions noted are these: 24 hours treatment; for DC50: AsPC-1 HiBiT-KRASG12D cells, HiBiT luminescence; for Dmax: ASPC1, AsPC-1 HiBiT-KRASG12D cells, maximum degradation observed. The essentials:
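Endogenous KRASG12D levels were measured via an N-terminal HiBiT tag knocked into AsPC-1 cells. Cells received compound titrations for 24 hours, and HiBiT luminescence was detected after a 45-minute lytic reagent incubation at room temperature.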
In general terms: The HiBiT peptide binds its large partner to form an active luciferase.

Bounds are passed on as bounds.

T1 sequence (P01116 1-188 isoform P01116-2 G12D): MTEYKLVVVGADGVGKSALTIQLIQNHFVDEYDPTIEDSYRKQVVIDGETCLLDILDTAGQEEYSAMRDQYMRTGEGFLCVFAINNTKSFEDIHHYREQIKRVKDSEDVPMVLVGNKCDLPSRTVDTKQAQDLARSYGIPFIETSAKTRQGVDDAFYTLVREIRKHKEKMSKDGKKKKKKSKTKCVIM

The DC50 is the concentration giving 50% degradation. A lower DC50 goes with a more potent degrader. Consider `CCc1cccc2cncc(-c3ncc4c(N5CC6CCC(C5)N6)nc(OCCN5CCC(COc6cc([C@H](C(=O)N7C[C@H](O)C[C@H]7C(=O)N[C@@H](C)c7ccc(-c8scnc8C)cc7)C(C)C)on6)CC5)nc4c3F)c12` [Compound 304], for which the 50% degradation concentration (DC50) was over 3000 nM.
Usually Dmax stands for the greatest extent of degradation seen. A low value points to shallow degradation. The molecule `CCc1cccc2cc(O)cc(-c3ncc4c(N5CCCCCC5)nc(OC[C@]56CCCN5[C@H](COC(=O)N5CC(Oc7cc([C@@H](C(=O)N8C[C@H](O)C[C@H]8C(=O)N[C@@H](C)c8ccc(-c9scnc9C)cc8)C(C)C)on7)C5)CC6)nc4c3F)c12` [Compound 305] registered a Dmax of 20 to 60% and a DC50 of 600 to 1000 nM.
In the same order, the values of `Cc1ncsc1-c1ccc([C@H](C)NC(=O)[C@@H]2C[C@@H](O)CN2C(=O)[C@@H](c2cc(OC3CN(C(=O)OC[C@@H]4CC[C@@]5(COc6nc(N7CC8CCC(C7)N8)c7cnc(-c8cc(O)cc(Cl)c8C8CC8)c(F)c7n6)CCCN45)C3)no2)C(C)C)cc1` [Compound 306] are 80 to 100% and under 600 nM.
`CCc1cccc2cccc(-c3ncc4c(N5CC6CCC(C5)N6)nc(OC[C@]56CCCN5[C@H](COc5cc([C@H](C(=O)N7C[C@H](O)C[C@H]7C(=O)N[C@@H](C)c7ccc(-c8scnc8C)cc7)C(C)C)on5)CC6)nc4c3F)c12` [Compound 309, (2S,4R)-1-[(2R)-2-[3-[[(3S,8R)-8-[[4-(3,8-diazabicyclo[3.2.1]octan-3-yl)-7-(8-ethyl-1-naphthyl)-8-fluoro-pyrido[4,3-d]pyrimidin-2-yl]oxymethyl]-1,2,3,5,6,7-hexahydropyrrolizin-3-yl]methoxy]isoxazol-5-yl]-3-methyl-butanoyl]-4-hydroxy-N-[(1S)-1-[4-(4-methylthiazol-5-yl)phenyl]ethyl]pyrrolidine-2-carboxamide]: the Dmax is under 20% and the DC50 is under 600 nM.
In the same order, the values of `CCc1cccc2cccc(-c3ncc4c(N5CC6CCC(C5)N6)nc(OC[C@]56CCCN5[C@H](COc5cc([C@@H](C(=O)N7C[C@H](O)C[C@H]7C(=O)N[C@@H](C)c7ccc(-c8scnc8C)cc7)C(C)C)on5)CC6)nc4c3F)c12` [Compound 310, (2S,4R)-1-[(2S)-2-[3-[[(3S,8R)-8-[[4-(3,8-diazabicyclo[3.2.1]octan-3-yl)-7-(8-ethyl-1-naphthyl)-8-fluoro-pyrido[4,3-d]pyrimidin-2-yl]oxymethyl]-1,2,3,5,6,7-hexahydropyrrolizin-3-yl]methoxy]isoxazol-5-yl]-3-methyl-butanoyl]-4-hydroxy-N-[(1S)-1-[4-(4-methylthiazol-5-yl)phenyl]ethyl]pyrrolidine-2-carboxamide] are 80 to 100% and under 600 nM.
In the same order, the values of `C#Cc1c(F)ccc2cc(O)cc(-c3ncc4c(N5CC6CCC(C5)N6)nc(OC[C@]56CCCN5[C@H](COc5cc([C@H](C(=O)N7C[C@H](O)C[C@H]7C(=O)N[C@@H](C)c7ccc(-c8scnc8C)cc7)C(C)C)on5)CC6)nc4c3F)c12` [Compound 311, (2S,4R)-1-[(2R)-2-[3-[[(3S,8R)-8-[[4-(3,8-diazabicyclo[3.2.1]octan-3-yl)-7-(8-ethynyl-7-fluoro-3-hydroxy-1-naphthyl)-8-fluoro-pyrido[4,3-d]pyrimidin-2-yl]oxymethyl]-1,2,3,5,6,7-hexahydropyrrolizin-3-yl]methoxy]isoxazol-5-yl]-3-methyl-butanoyl]-4-hydroxy-N-[(1S)-1-[4-(4-methylthiazol-5-yl)phenyl]ethyl]pyrrolidine-2-carboxamide] are 80 to 100% and under 600 nM.
On the same counts, the results for `C#Cc1c(F)ccc2cc(O)cc(-c3ncc4c(N5CC6CCC(C5)N6)nc(OC[C@]56CCCN5[C@H](COc5cc([C@@H](C(=O)N7C[C@H](O)C[C@H]7C(=O)N[C@@H](C)c7ccc(-c8scnc8C)cc7)C(C)C)on5)CC6)nc4c3F)c12` [Compound 312, (2S,4R)-1-[(2S)-2-[3-[[(3S,8R)-8-[[4-(3,8-diazabicyclo[3.2.1]octan-3-yl)-7-(8-ethynyl-7-fluoro-3-hydroxy-1-naphthyl)-8-fluoro-pyrido[4,3-d]pyrimidin-2-yl]oxymethyl]-1,2,3,5,6,7-hexahydropyrrolizin-3-yl]methoxy]isoxazol-5-yl]-3-methyl-butanoyl]-4-hydroxy-N-[(1S)-1-[4-(4-methylthiazol-5-yl)phenyl]ethyl]pyrrolidine-2-carboxamide] are 20 to 60% and 1000 to 3000 nM.
`C#Cc1c(F)ccc2cc(O)cc(-c3ncc4c(N5CC6CCC(C5)N6)nc(OCCN5CCC(C)(COc6cc([C@H](C(=O)N7C[C@H](O)C[C@H]7C(=O)N[C@@H](C)c7ccc(-c8scnc8C)cc7)C(C)C)on6)CC5)nc4c3F)c12` [Compound 313, (2S,4R)-1-[(2R)-2-{3-[(1-{2-[(4-{3,8-diazabicyclo[3.2.1]octan-3-yl}-7-(8-ethynyl-7-fluoro-3-hydroxynaphthalen-1-yl)-8-fluoropyrido[4,3-d]pyrimidin-2-yl)oxy]ethyl}-4-methylpiperidin-4-yl)methoxy]-1,2-oxazol-5-yl}-3-methylbutanoyl]-4-hydroxy-N-[(1S)-1-[4-(4-methyl-1,3-thiazol-5-yl)phenyl]ethyl]pyrrolidine-2-carboxamide] registered a Dmax of 80 to 100% and a DC50 of under 600 nM.
In the same order, the values of `C#Cc1c(F)ccc2cc(O)cc(-c3ncc4c(N5CC6CCC(C5)N6)nc(OC[C@@]56CCCN5[C@H](COc5cc([C@H](C(=O)N7C[C@H](O)C[C@H]7C(=O)N[C@@H](C)c7ccc(-c8scnc8C)cc7)C(C)C)on5)CC6)nc4c3F)c12` [Compound 314, (2S,4R)-1-[(2R)-2-[3-[[(3S,8S)-8-[[4-(3,8-diazabicyclo[3.2.1]octan-3-yl)-7-(8-ethynyl-7-fluoro-3-hydroxy-1-naphthyl)-8-fluoro-pyrido[4,3-d]pyrimidin-2-yl]oxymethyl]-1,2,3,5,6,7-hexahydropyrrolizin-3-yl]methoxy]isoxazol-5-yl]-3-methyl-butanoyl]-4-hydroxy-N-[(1S)-1-[4-(4-methylthiazol-5-yl)phenyl]ethyl]pyrrolidine-2-carboxamide] are 80 to 100% and under 600 nM.
In turn, `C#Cc1c(F)ccc2cc(O)cc(-c3ncc4c(N5CC6CCC(C5)N6)nc(OC[C@@]56CCCN5[C@H](COc5cc([C@@H](C(=O)N7C[C@H](O)C[C@H]7C(=O)N[C@@H](C)c7ccc(-c8scnc8C)cc7)C(C)C)on5)CC6)nc4c3F)c12` [Compound 315, (2S,4R)-1-[(2S)-2-[3-[[(3S,8S)-8-[[4-(3,8-diazabicyclo[3.2.1]octan-3-yl)-7-(8-ethynyl-7-fluoro-3-hydroxy-1-naphthyl)-8-fluoro-pyrido[4,3-d]pyrimidin-2-yl]oxymethyl]-1,2,3,5,6,7-hexahydropyrrolizin-3-yl]methoxy]isoxazol-5-yl]-3-methyl-butanoyl]-4-hydroxy-N-[(1S)-1-[4-(4-methylthiazol-5-yl)phenyl]ethyl]pyrrolidine-2-carboxamide] displayed a DC50 of over 3000 nM.

For the origin of these results see US20250206732A1, “COMPOUNDS AND METHODS FOR THE TARGETED DEGRADATION OF KRAS” (Arvinas Operations, Inc., priority 2022, published 2025).
